From ChEMBL document CHEMBL1201862, “PubChem BioAssay data set” (2004)
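Protocol summary: plate cells (96-well), add compound at 5 concentrations, incubate 48 h, interpolate endpoints linearly. GI50 marks 50% less growth.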 Calls of active or inactive are those of the source. Rule as the data show it: active = GI50 up to about 1.1 µM and inactive = higher.

How the values were obtained:
Assay in all cases: NCI-60 cell line screen, 48 h
786-0 = tested on: 786-0
A498 = tested on: A498
A549 = tested on: A549
ACHN = tested on: ACHN
BT-549 = tested on: BT-549
CAKI-1 = tested on: CAKI-1
CCRF-CEM = tested on: CCRF-CEM
COLO 205 = tested on: COLO 205
DU-145 = tested on: DU-145
HCC 2998 = tested on: HCC 2998
HCT-116 = tested on: HCT-116
HCT-15 = tested on: HCT-15
HL-60 = tested on: HL-60
HOP-62 = tested on: HOP-62
HOP-92 = tested on: HOP-92
HT-29 = tested on: HT-29
Hs-578T = tested on: Hs-578T
IGROV-1 = tested on: IGROV-1
K562 = tested on: K562
KM12 = tested on: KM12
LOX IMVI = tested on: LOX IMVI
M14 = tested on: M14
MCF7 = tested on: MCF7
MDA-MB-231 = tested on: MDA-MB-231
MDA-MB-435 = tested on: MDA-MB-435
MDA-N = tested on: MDA-N
MOLT-4 = tested on: MOLT-4
Malme-3M = tested on: Malme-3M
NCI-H226 = tested on: NCI-H226
NCI-H23 = tested on: NCI-H23
NCI-H460 = tested on: NCI-H460
NCI-H522 = tested on: NCI-H522
NCI/ADR-RES = tested on: NCI/ADR-RES
OVCAR-4 = tested on: OVCAR-4
OVCAR-5 = tested on: OVCAR-5
OVCAR-8 = tested on: OVCAR-8
PC-3 = tested on: PC-3
RPMI-8226 = tested on: RPMI-8226
RXF 393 = tested on: RXF 393
SF-268 = tested on: SF-268
SF-295 = tested on: SF-295
SF-539 = tested on: SF-539
SK-MEL-28 = tested on: SK-MEL-28
SK-MEL-2 = tested on: SK-MEL-2
SK-MEL-5 = tested on: SK-MEL-5
SN12C = tested on: SN12C
SNB-19 = tested on: SNB-19
SNB-75 = tested on: SNB-75
SR = tested on: SR
SW-620 = tested on: SW-620
T47D = tested on: T47D
TK-10 = tested on: TK-10
U-251 = tested on: U-251
UACC-257 = tested on: UACC-257
UACC-62 = tested on: UACC-62
UO-31 = tested on: UO-31
EKVX = tested on: EKVX
OVCAR-3 = tested on: OVCAR-3
SK-OV-3 = tested on: SK-OV-3

SMILES: CC(=O)OCC1OC(n2c3c(cc(C#N)c2=S)CCC3)C(OC(C)=O)C(OC(C)=O)C1OC(C)=O (centres undefined)
- GI50 (786-0): > 100 µM (inactive)
- GI50 (A498): > 100 µM (inactive)
- GI50 (A549): > 100 µM (inactive)
- GI50 (ACHN): > 100 µM (inactive)
- GI50 (BT-549): > 100 µM (inactive)
- GI50 (CAKI-1): > 100 µM (inactive)
- GI50 (CCRF-CEM): > 100 µM (inactive)
- GI50 (COLO 205): > 100 µM (inactive)
- GI50 (DU-145): > 100 µM (inactive)
- GI50 (HCC 2998): > 100 µM (inactive)
- GI50 (HCT-116): > 100 µM (inactive)
- GI50 (HCT-15): > 100 µM
- GI50 (HL-60): > 100 µM (inactive)
- GI50 (HOP-62): > 100 µM (inactive)
- GI50 (HOP-92): > 100 µM (inactive)
- GI50 (HT-29): > 100 µM (inactive)
- GI50 (Hs-578T): > 100 µM (inactive)
- GI50 (IGROV-1): > 100 µM (inactive)
- GI50 (K562): > 100 µM (inactive)
- GI50 (KM12): > 100 µM (inactive)
- GI50 (LOX IMVI): > 100 µM (inactive)
- GI50 (M14): > 100 µM (inactive)
- GI50 (MCF7): > 100 µM (inactive)
- GI50 (MDA-MB-231): > 100 µM (inactive)
- GI50 (MDA-MB-435): > 100 µM (inactive)
- GI50 (MDA-N): > 100 µM (inactive)
- GI50 (MOLT-4): 33.9 µM (inactive)
- GI50 (Malme-3M): > 100 µM (inactive)
- GI50 (NCI-H226): > 100 µM (inactive)
- GI50 (NCI-H23): > 100 µM (inactive)
- GI50 (NCI-H460): > 100 µM (inactive)
- GI50 (NCI-H522): > 100 µM (inactive)
- GI50 (NCI/ADR-RES): > 100 µM (inactive)
- GI50 (OVCAR-4): > 100 µM (inactive)
- GI50 (OVCAR-5): > 100 µM (inactive)
- GI50 (OVCAR-8): > 100 µM (inactive)
- GI50 (PC-3): > 100 µM (inactive)
- GI50 (RPMI-8226): > 100 µM (inactive)
- GI50 (RXF 393): > 100 µM (inactive)
- GI50 (SF-268): > 100 µM (inactive)
- GI50 (SF-295): > 100 µM (inactive)
- GI50 (SF-539): > 100 µM (inactive)
- GI50 (SK-MEL-28): > 100 µM (inactive)
- GI50 (SK-MEL-2): > 100 µM (inactive)
- GI50 (SK-MEL-5): > 100 µM (inactive)
- GI50 (SN12C): > 100 µM (inactive)
- GI50 (SNB-19): > 100 µM (inactive)
- GI50 (SNB-75): 68.1 µM (inactive)
- GI50 (SR): 68.4 µM (inactive)
- GI50 (SW-620): > 100 µM (inactive)
- GI50 (T47D): > 100 µM (inactive)
- GI50 (TK-10): > 100 µM (inactive)
- GI50 (U-251): > 100 µM (inactive)
- GI50 (UACC-257): > 100 µM (inactive)
- GI50 (UACC-62): > 100 µM (inactive)
- GI50 (UO-31): > 100 µM (inactive)

SMILES: O=C1c2cc3c(cc2CC12Cc1cc4c(cc1C2=O)CCCC4)CCCC3
- GI50 (786-0): 21.1 µM (inactive)
- GI50 (A498): > 100 µM (inactive)
- GI50 (A549): 59.2 µM (inactive)
- GI50 (ACHN): 62.1 µM (inactive)
- GI50 (BT-549): 56.4 µM (inactive)
- GI50 (CCRF-CEM): > 100 µM (inactive)
- GI50 (COLO 205): > 100 µM (inactive)
- GI50 (DU-145): 66.1 µM (inactive)
- GI50 (EKVX): > 100 µM (inactive)
- GI50 (HCC 2998): > 100 µM (inactive)
- GI50 (HCT-116): 62.7 µM (inactive)
- GI50 (HCT-15): > 100 µM
- GI50 (HL-60): 34.9 µM (inactive)
- GI50 (HOP-62): 24.2 µM (inactive)
- GI50 (HOP-92): 18.9 µM (inactive)
- GI50 (HT-29): > 100 µM (inactive)
- GI50 (Hs-578T): 28.3 µM (inactive)
- GI50 (IGROV-1): 71 µM (inactive)
- GI50 (K562): 78.5 µM (inactive)
- GI50 (KM12): > 100 µM (inactive)
- GI50 (LOX IMVI): > 100 µM (inactive)
- GI50 (M14): 65.2 µM (inactive)
- GI50 (MCF7): > 100 µM (inactive)
- GI50 (MDA-MB-231): 22.1 µM (inactive)
- GI50 (MDA-MB-435): > 100 µM (inactive)
- GI50 (MDA-N): > 100 µM (inactive)
- GI50 (MOLT-4): > 100 µM (inactive)
- GI50 (Malme-3M): > 100 µM (inactive)
- GI50 (NCI-H226): > 100 µM (inactive)
- GI50 (NCI-H23): 33.3 µM (inactive)
- GI50 (NCI-H460): 25.6 µM (inactive)
- GI50 (NCI-H522): > 100 µM (inactive)
- GI50 (NCI/ADR-RES): 24.6 µM (inactive)
- GI50 (OVCAR-3): 23.7 µM (inactive)
- GI50 (OVCAR-4): 18.1 µM (inactive)
- GI50 (OVCAR-5): > 100 µM (inactive)
- GI50 (OVCAR-8): > 100 µM (inactive)
- GI50 (PC-3): 40.2 µM (inactive)
- GI50 (RPMI-8226): > 100 µM (inactive)
- GI50 (RXF 393): 16.4 µM (inactive)
- GI50 (SF-268): 29.3 µM (inactive)
- GI50 (SF-295): 23.2 µM (inactive)
- GI50 (SF-539): 52.2 µM (inactive)
- GI50 (SK-MEL-28): > 100 µM (inactive)
- GI50 (SK-MEL-2): 75.9 µM (inactive)
- GI50 (SK-MEL-5): 46.5 µM (inactive)
- GI50 (SK-OV-3): 70 µM (inactive)
- GI50 (SN12C): 56.2 µM (inactive)
- GI50 (SNB-19): 33.8 µM (inactive)
- GI50 (SNB-75): 17.9 µM (inactive)
- GI50 (SR): 37.1 µM (inactive)
- GI50 (SW-620): > 100 µM (inactive)
- GI50 (T47D): 18.5 µM (inactive)
- GI50 (TK-10): 31.8 µM (inactive)
- GI50 (U-251): 30.8 µM (inactive)
- GI50 (UACC-257): 10.9 µM (inactive)
- GI50 (UACC-62): 58.2 µM (inactive)
- GI50 (UO-31): > 100 µM (inactive)
